Measurements reported in patent publication US20250367302A1, “SMALL MOLECULE DRUG-OLIGONUCLEOTIDE CONJUGATE AND USE THEREOF” (SHANGHAI JIAO TONG UNIVERSITY, priority 2022, published 2025).
d = 2'-deoxy (DNA); r = 2'-OH (RNA)

Assays:
NFKBIZ mRNA = NFKBIZ mRNA expression by RT-qPCR in LPS-stimulated HCECs; type: cell-based, human; details: LPS-stimulated (100 ng/mL) HCECs, 10 μM ASO or siRNA, without transfection reagent, 6 h + 48 h
Description: HCECs were inoculated in a 6-well plate at a density of 1×10^5 cells/well and cultured until adherence. The cells were then stimulated with 100 ng/mL lipopolysaccharide (LPS) overnight. After removing the supernatant, 1 mL of Opti-MEM medium containing ASONFKBIZ-h, ASONFKBIZ-h+Lipofectamine2000 (Lipo2000), and CsA-ASONFKBIZ-h (all containing 10 µM ASO) were added, respectively. Cells without any treatment were used as a blank reference (Mock). After incubation at 37° C. for 6 h, the cells were transferred into DMEM medium and incubated for another 48 h. The cells were collected and RNA was extracted for RT-qPCR to analyze the expression level of the NFKBIZ mRNA in HCECs, and experimental results were shown in FIG. 9. The expression level of NFKBIZ mRNA in HCECs after LPS stimulation was about 1.3 times that of normal cells. […] After adding CsA-ASONFKBIZ-h for co-incubation, the expression of NFKBIZ mRNA was reduced to about 0.8 times that of normal cells.
(§1) HCECs were inoculated in a 6-well plate at a density of 1×10^5 cells/well and cultured until adherence. The cells were then stimulated with 100 ng/mL LPS overnight. After removing the supernatant, 1 mL of Opti-MEM medium containing ASONFKBIZ-h+Lipo2000 complex and 2CsA-ASONFKBIZ-h nanomicelles (all containing 10 µM ASO) were added, respectively. After incubation at 37° C. for 6 h, the cells were transferred into DMEM medium and incubated for another 48 h. The cells were collected and RNA was extracted for RT-qPCR to analyze the expression level of the NFKBIZ mRNA in HCECs, and experimental results were shown in FIG. 12.
as §1, with “ng/ml” for “ng/mL”, “3CsA-ASONFKBIZ-h” for “2CsA-ASONFKBIZ-h”, “15.” for “12.”
HCECs were inoculated in a 6-well plate at a density of 1×10^5 cells/well and cultured until adherence. The cells were then stimulated with 100 ng/mL LPS overnight. 1 mL of Opti-MEM medium containing ASONFKBIZ-h+Lipo2000 complex and CsA3-ASONFKBIZ-h nanomicelles (all containing 10 µM ASO) were added, respectively. After incubation at […]. 37° C. for 6 h, the cells were transferred into DMEM medium and incubated for another 48 h. After collected and RNA was extracted for RT-qPCR to evaluate the expression level of NFKBIZ mRNA in HCECs, and the experimental results were shown in FIG. 23.
HCECs were inoculated in a 6-well plate at a density of 1×10^5 cells/well and cultured overnight until adherence. The cells were then stimulated with 100 ng/ml LPS for 12 h. After removing the supernatant, 1 mL of Opti-MEM medium containing siRNANFKBIZ-h+Lipo2000 complex and nCsA-siRNANFKBIZ-h (n=1, 2, 3) conjugates and nanomicelles (all containing 10 μM siRNA) were added, respectively. After incubation at 37° C. for 6 h, the cells were transferred into DMEM medium and incubated for another 48 h. The cells were collected and RNA was extracted for RT-qPCR to evaluate the expression of NFKBIZ mRNA in HCECs, and experimental results were shown in FIG. 27. […]

[1] = test system: Human corneal epithelial cells (HCECs); test: Cellular uptake of FITC-labelled conjugate by flow cytometry; type: cell-based
Description: Human corneal epithelial cells (HCECs) were inoculated at a density of 5×10^4 cells/well in a 12-well plate and cultured overnight. After the medium was removed, 0.5 mL of fresh medium containing 10 μM or 100 μM CsA-ASONFKBIZ-h conjugate with FITC fluorescence was added and incubated with HCECs for 6 h, while a well plate without conjugate was used as a blank control (Mock group). After the incubation, the supernatant medium was discarded, and then the cells were digested with trypsin and washed 2 to 3 times with phosphate-buffered saline (PBS, pH=7.2). After the cells were collected, flow cytometric analysis was conducted using a flow cytometer, and experimental results were shown in FIGS. 8A-8B.

Substance | expression of NFKBIZ mRNA relative to normal cells (NFKBIZ mRNA) | cellular uptake ([1]; 10 μM or 100 μM FITC-labelled conjugate, 6 h) | average fluorescence intensity of cells, 100 UM versus 10 μM conjugate ([1]; FITC-labelled conjugate, 6 h incubation, flow cytometry)
2CsA-ASONFKBIZ-h: two CsA molecules coupled to 2DBCO ASO targeting human NFKBIZ (SEQ ID 3), self-assembled (ATCAGACAACGAATCGGGCNTT; two CsA via DBCO click; modified_base 20 OTHER; n is t base modified with DBCO moiety) | about 0.8 times that of normal cells | – | –
3CsA-ASONFKBIZ-h: three CsA molecules coupled to 3DBCO ASO targeting human NFKBIZ (SEQ ID 5), self-assembled (ATCAGACAACGAATCGGGCNTNTT; three CsA via DBCO click; modified_base 20 OTHER; n is t base modified with DBCO moiety; modified_base 22 OTHER) | about 0.75 times that of normal cells | – | –
CsA-ASONFKBIZ-h: single cyclosporin A (CsA-N3) click-coupled to 3′-DBCO ASO targeting human NFKBIZ gene (SEQ ID NO: 1) (ATCAGACAACGAATCGGGC; 3'-DBCO ASO click-conjugated to one cyclosporin A, sugar and linkages not given here, further chemistry not given here) | about 0.8 times that of normal cells | effectively taken up by cells | approximately 10 times
CsA-siRNANFKBIZ-h: one CsA coupled to sense strand of siRNA targeting human NFKBIZ (SEQ ID NO: 9/10) (sense GCCCGAUUCGUUGUCUGAUTT; antisense AUCAGACAACGAAUCGGGCTT; sugars from the 5' end r19 d2, backbone not given here; DBCO clicked to azide-modified cyclosporin A, further chemistry not fully specified) | level before LPS stimulation | – | –
